Test results reported in paper PMC6816246, “A Novel Substrate Radiotracer for Molecular Imaging of SIRT2 Expression and Activity with Positron Emission Tomography” (Molecular imaging and biology, 2018).

Molecular target: T1, SIRT2 (Homo sapiens, UniProt Q8IXJ6)
T1 sequence (Q8IXJ6 2-389): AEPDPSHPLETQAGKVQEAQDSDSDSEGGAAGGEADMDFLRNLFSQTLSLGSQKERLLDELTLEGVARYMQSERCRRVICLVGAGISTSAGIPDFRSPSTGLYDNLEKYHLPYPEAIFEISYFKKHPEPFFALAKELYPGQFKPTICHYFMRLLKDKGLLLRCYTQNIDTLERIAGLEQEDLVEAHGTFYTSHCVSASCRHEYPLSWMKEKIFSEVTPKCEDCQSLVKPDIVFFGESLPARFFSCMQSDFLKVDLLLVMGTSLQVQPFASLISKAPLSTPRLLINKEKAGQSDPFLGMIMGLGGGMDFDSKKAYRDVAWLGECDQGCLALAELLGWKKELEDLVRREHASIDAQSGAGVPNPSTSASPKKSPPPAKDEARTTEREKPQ
Assay: fluorogenic enzyme kinetics with recombinant SIRT2 (Km)
Assay type: biochemical

Substance | Km [µM]
Boc-Lys(3-F-propanoyl)-AMC [compound 1] | 55.5
Boc-Lys(6-F-hexanoyl)-AMC [compound 2] | 44.9
Boc-Lys(10-F-decanoyl)-AMC [compound 3] | 18
Boc-Lys(12-F-dodecanoyl)-AMC [compound 4] | 8.07
Boc-Lys(myristoyl)-AMC [compound 5] | 2.36
